From patent US20170044107A1, “Inhibitors of JMJD2C as Anticancer Agents” (The J. David Gladstone Institutes, priority 2014, published 2017) come the findings set out here.

Counter-ions that a name gives are not always drawn.

Holding throughout (format): cell-based
Test [1] concerns CWR22Rv1 androgen-independent prostate cancer cells. Nature of the test: CellTiter-Glo Luminescent Cell Viability Assay, CWR22Rv1 cells. The settings on record: 48 hours treatment, % of survival normalized to DMSO control; for viability at 10 µM: CWR22Rv1, compound at 10 μM. As to the method:
(§1) Cell viability assays were performed on three representative prostate cancer cell lines (i.e., CWR22Rvl, PC3 and DU145) to determine the effect of treatment with a series of 8-hydroxyquinoline derivatives.
(§2) Cell viability was assessed 48 hours after compound treatment with the CellTiter-Glo® Luminescent Cell Viability Assay (Promega), according to the manufacturer's protocol. Briefly, 5000 cells were plated into 96-well cell culture plates in DMEM supplemented with 10% FBS. After overnight incubation, compounds at indicated concentrations were added and the treatment was maintained for two days. At the end of compound treatment, 5.0 μL of CellTiter-Glo® Reagent was added to each well. Plates were returned to the incubator for 2 hours. Plates were then removed from the incubator and luminescence was measured in a standard luminescence plate reader. The luminescence signal was then used to calculate % of survival normalized to DMSO control treatment.
(In ATP-based viability assays light output follows the ATP content of the culture.)

Test [2] concerns DU145 androgen-independent prostate cancer cells. Nature of the test: CellTiter-Glo Luminescent Cell Viability Assay, DU145 cells. The settings on record: 48 hours treatment, % of survival normalized to DMSO control; for viability at 2 µM: Homo sapiens, DU-145, compound at 2 μM. As to the method: as §1, §2
Test [3] concerns PC3 androgen-independent prostate cancer cells. Nature of the test: CellTiter-Glo Luminescent Cell Viability Assay, PC3 cells. The following applies: 48 hours treatment, % of survival normalized to DMSO control; for viability at 2 µM: Homo sapiens, PC-3, compound at 2 μM. As to the method: as §1, §2

The term viability denotes a read-out of living cells in per cent, often relative to untreated cells. As for `CC(C)C(=O)NC(c1ccc([N+](=O)[O-])cc1)c1ccc2cccnc2c1O` (stereo not drawn) [SD70-25, N-((8-hydroxyquinolin-7-yl)(4-nitrophenyl)methyl)isobutyramide], the viability at 10 µM in test [1] is 16%.

Turning to “N-((8-hydroxyquinolin-7-yl)(4-methoxyphenyl)methyl)isobutyramide isobutyramide [SD70-22]”, the “% CWR22Rv1 Survival (Compound at 10 μM)” value in test [1] came to 18%. Besides, in test [2], the “% DU145 Survival (Compound at 2 μM)” value worked out at 21%. The “% PC3 Survival (Compound at 2 μM)” value in test [3] is given as 13%.

In the case of `COc1c(C(NC(=O)C(C)C)c2ccco2)ccc2cccnc12` (stereo not drawn) [SD70-23, N-(furan-2-yl(8-methoxyquinolin-7-yl)methyl)isobutyramide], in test [1], the viability at 10 µM stood at 96%.

Take `Oc1c(CN2CCCCC2)ccc2cccnc12` [SD70-20, 7-(piperidin-1-ylmethyl)quinolin-8-ol]: the viability at 10 µM in test [1] turned out to be 99%. Moreover, the figures for the viability at 2 µM in test [2] and in test [3] were 88% and 98%, respectively.

For `CCC(=O)NC(c1ccco1)c1cc([N+](=O)[O-])c2cccnc2c1O` (stereo not drawn) [SD70-10, N-(furan-2-yl(8-hydroxy-5-nitroquinolin-7-yl)methyl)propionamide], in test [1], the viability at 10 µM is 110%. Also, the viability at 2 µM turned out to be 100% in test [2] and 93% in test [3].

For the compound `Oc1ccc(CNCCN2CCOCC2)c2cccnc12` [SD70-17, 5-((2-morpholinoethylamino)methyl)quinolin-8-ol], the viability at 10 µM in test [1] amounted to 7%. Moreover, the figures for the viability at 2 µM in test [2] and in test [3] were 100% and 98%, respectively.

For `O=C(NC(c1ccco1)c1cc(Cl)c2cccnc2c1O)c1cccnc1` (stereo not drawn) [SD70-5, N-((5-chloro-8-hydroxyquinolin-7-yl)(furan-2-yl)methyl)nicotinamide], the viability at 10 µM in test [1] was 94%. The viability at 2 µM in test [2] amounted to 31%; in test [3], 23%.

`CC(C)CCNCc1ccc2cccnc2c1O` [SD70-21, 7-((isopentylamino)methyl)quinolin-8-ol]: in test [1], the viability at 10 µM is 93%. The viability at 2 µM was found to be 100% in test [2] and 93% in test [3].

On to `CCC(=O)NC(c1ccccc1OC)c1cc(Cl)c2cccnc2c1O` (stereo not drawn) [SD70-8, N-((5-chloro-8-hydroxyquinolin-7-yl)(2-methoxyphenyl)methyl)propionamide], for which, in test [1], the viability at 10 µM came to 10%. In addition, the figures for the viability at 2 µM in test [2] and in test [3] were 42% and 61%, respectively.

On to `Oc1ccc(COCc2ccccc2)c2cccnc12` [SD70-16, 5-(benzyloxymethyl)quinolin-8-ol], for which the viability at 10 µM in test [1] is 20%. Also, the viability at 2 µM in test [2] amounted to 19%; in test [3], 14%.

As for `CC(=O)NC(c1ccco1)c1cc(Cl)c2cccnc2c1O` (stereo not drawn) [SD70-3, N-((5-chloro-8-hydroxyquinolin-7-yl)(furan-2-yl)methyl)acetamide], the viability at 10 µM in test [1] was found to be 110%. The viability at 2 µM in test [2] came out at 110%; in test [3] it was 88%.

With `Oc1ccc(CCl)c2cccnc12` [SD70-15, 5-(chloromethyl)quinolin-8-ol hydrochloride], in test [1], the viability at 10 µM worked out at 91%. Besides, the viability at 2 µM in test [2] was 100%; in test [3] it was 96%.

`CCCC(=O)NC(c1ccco1)c1cc(Cl)c2cccnc2c1O` (stereo not drawn) [SD70-4, N-((5-chloro-8-hydroxyquinolin-7-yl)(furan-2-yl)methyl)butyramide]: in test [1], the viability at 10 µM was determined as 110%. The viability at 2 µM in test [2] amounted to 29%; in test [3], 7%.

For the compound `Oc1c(CN2CCN(c3ccccn3)CC2)ccc2cccnc12` [SD70-18, 7-((4-(pyridin-2-yl)piperazin-1-yl)methyl)quinolin-8-ol], the viability at 10 µM in test [1] was determined as 27%. Further, the viability at 2 µM was found to be 110% in test [2] and 125% in test [3].

Take `COc1ccc(C(NC(=O)C(C)C)c2ccc3cccnc3c2O)cc1OC` (stereo not drawn) [SD70-24, N-((3,4-dimethoxyphenyl)(8-hydroxyquinolin-7-yl)methyl)isobutyramide]: the viability at 10 µM in test [1] came to 12%.

As to `CCC(=O)NC(c1ccco1)c1cc(Cl)c2cccnc2c1O` (stereo not drawn) [SD70-1, N-((5-chloro-8-hydroxyquinolin-7-yl)(furan-2-yl)methyl)propionamide], the viability at 10 µM in test [1] worked out at 93%. Moreover, the viability at 2 µM in test [2] turned out to be 87%; in test [3] it was 47%.

Consider `CC(C)C(=O)NC(c1ccco1)c1cc(Cl)c2cccnc2c1O` (stereo not drawn) [SD70-2, N-((5-chloro-8-hydroxyquinolin-7-yl)(furan-2-yl)methyl)isobutyramide], for which the viability at 10 µM in test [1] turned out to be 100%. Besides, the viability at 2 µM in test [2] came out at 32%; in test [3], 9%.

As to `CCC(=O)NC(c1ccco1)c1ccc2cccnc2c1O` (stereo not drawn) [SD70-11, N-(furan-2-yl(8-hydroxyquinolin-7-yl)methyl)propionamide], the viability at 10 µM in test [1] came out at 16%. Also, the viability at 2 µM in test [2] was 120%; in test [3], 79%.

Take `O=C(COc1ccccc1)NC(c1ccco1)c1cc(Cl)c2cccnc2c1O` (stereo not drawn) [SD70-7, N-((5-chloro-8-hydroxyquinolin-7-yl)(furan-2-yl)methyl)-2-phenoxyacetamide]: the viability at 10 µM in test [1] is 28%. The viability at 2 µM in test [2] and in test [3] was 21% each time.

Regarding `COc1ccc(C(=O)NC(c2ccco2)c2cc(Cl)c3cccnc3c2O)cc1` (stereo not drawn) [SD70-6, N-((5-chloro-8-hydroxyquinolin-7-yl)(furan-2-yl)methyl)-4-methoxybenzamide], the viability at 10 µM in test [1] was 21%. Also, the viability at 2 µM in test [2] turned out to be 50%; in test [3], 24%.

`CC(C)C(=O)NC(c1ccco1)c1ccc2cccnc2c1O` (stereo not drawn) [SD70, N-(furan-2-yl(8-hydroxyquinolin-7-yl)methyl)isobutyramide]: in test [1], the viability at 10 µM stood at 9%. Besides, the viability at 2 µM in test [2] came to 26%; in test [3], 14%.

For `Oc1c(CNCCN2CCOCC2)ccc2cccnc12` [SD70-19, 7-((2-morpholinoethylamino)methyl)quinolin-8-ol], in test [1], the viability at 10 µM is 107%. Besides, the values for the viability at 2 µM in test [2] and in test [3] were 94% and 98%, respectively.

`CCC(=O)NC(c1ccc(OC)c(OC)c1)c1cc(Cl)c2cccnc2c1O` (stereo not drawn) [SD70-9, N-((5-chloro-8-hydroxyquinolin-7-yl)(3,4-dimethoxyphenyl)methyl)propionamide]: the viability at 10 µM in test [1] is 18%. The viability at 2 µM in test [2] is 10%; in test [3] it was 21%.
